Assay results published in article PMC10877577 (ACS Chemical Biology, 2024).
“Also recorded” adds a separate entry of the source. Like-named read-outs stand apart in the source and are kept apart here.

Assays:
Nalm6 EGFR+ tumor = test: Xenograft model with NALM6, BLI readout; format: in vivo, NSG mice; conditions: minocycline hydrochloride 0.4 mg i.p. every 2–3 days; day 7 to 13 post CAR-T
Procedure: All animal studies were carried out in accordance with a UK Home Office-approved project license and were approved by the UCL Biological Services Ethical Review Committee. NSG mice (female, aged 6–10 weeks) were acquired from Charles River Laboratories and raised under pathogen-free conditions. On day 4, 0.5 × 10^6 Nalm6 cells engineered to express EGFR and HA-luciferase were injected intravenously into NSG mice. Tumor engraftment was assessed through bioluminescence imaging, employing the IVIS Spectrum system (PerkinElmer) following intraperitoneal injection of 2 mg D-luciferin. Photon emission from EGFR^+ NALM6-FLuc cells, expressed in photon per second per cm^2 per steradian, was quantified using Living Image software (PerkinElmer). On day 0, mice were randomly assigned to different cohorts prior to intravenous injection of 1 × 10^6 CAR T cells. The experiment was conducted without blinding; however, the use of bioluminescence imaging provides an objective assessment of tumor growth in this model. […] Intraperitoneal injection of 100 μL (0.4 mg) was administered every 2–3 days.

[1] = tested on: HEK-293T transduced with the aMinoC1 transmembrane receptor; test: Flow cytometry of peptide-muIgG2a Fc binding to cells with aMinoC1 transmembrane receptor; format: cell-based, human; conditions: GWARA, HWAQA, PWAYS, QWAMM, increasing minocycline, caffeine 100 μM
Procedure: Flow cytometry was performed using the MACSQuant Analyzer 10 or MACSQuant X (Miltenyi Biotec). All flow cytometry data was analyzed using FlowJo v.7.6.2 software (Tree Star Inc., Ashland, OR). Cell staining was carried out by incubation with PBS containing the recommended concentration of antibodies at RT for 30 min. PBS washes were carried out between antibody staining. Cell viability was determined using viability dye SYTOX Blue Dead Cell Stain (ThermoFisher) prior to flow cytometric analysis. Cells were first gated for singlet population identified by FSC-H and FSC-A. Next, live cells were identified using a viability dye, followed by gating for target cell populations. The antibodies used in the study are as follows: CD3 PECy7 (Biolegend, 317334), Human CD34 APC-conjugated antibody (R&D system, FAB7227A), Human CD34 Alexa Fluor 488-conjugated antibody (R&D system, FAB7227G), Streptavidin PE (Biolegend, 405204), APC antihuman EGFR antibody (Biolegend, 352905), Alexa Fluor 488 antihuman EGFR antibody (Biolegend, 352907), PE anti-HA.11 Epitope Tag antibody (Biolegend, 901517), Anti-M13-HRP (Sino Biologics, 1197 mm05T-H), Anti-Myc-HRP (Genscript, A00863), and SYTOX Blue Dead Cell Stain (ThermoFisher, S10274).

[2] = tested on: MinoCAR-transduced PBMC against SupT1-EGFR+ target cells; test: Cytokine release of MinoCAR PBMCs; format: cell-based, human; conditions: minocycline supplementation, 24 h, 1:2 E/T
Procedure: (§1) Transduced CAR T cells were determined by staining for the transduction marker RQR8 and normalized by the addition of nontransduced T cells. Effector cells were cocultured with 5.0 × 10^4 number of target cells (SupT1-NT, SupT1-EGFR+, SKOV3-mKate) to achieve the desired effector cell to target ratio. Where appropriate, minocycline was supplemented as a part of the culture conditions. Cocultures were incubated for 24–72 h at 37 °C and 5% CO2. After incubation, plates were centrifuged at 400g for 5 min, and the supernatant containing secreted cytokines was collected for cytokine analysis. Cells were stained with anti-hCD34-APC and anti-CD3-PeCy7 to differentiate effector T cells and target cells. Cells were washed with 300 μL o PBS and stained with SYTOX Blue Dead Cell Stain dye. The percentage of target cell survival was measured relative to the number of live target cells cocultured with nonspecific CAR T cells or nontransduced PBMCs.
(§2) IFN-γ, IL2, and IL12 secretion was measured by collecting the supernatant from the respective cell-based assay and frozen at −20 °C prior to analysis by ELISA. IFN-γ, IL2, and IL12 ELISAs were carried out using the Human IFN-γ ELISA MAX Deluxe kit, Human IL2 ELISA MAX Deluxe kit, and Human IL12 (p70) ELISA MAX Deluxe kit in accordance with the manufacturer’s instructions (BioLegend).

[3] = tested on: MyD88/CD40 signaling in transduced PBMCs; test: IFN-γ secretion of PBMCs with aMinoC1/GWARA-MyD88/CD40 module; format: cell-based, human; conditions: increasing concentrations of minocycline
Procedure: as §2

[4] = tested on: MinoCAR-transduced PBMC against SKOV3 EGFR+ target cells; test: Tunability and reversibility assays (Incucyte kinetics of cytotoxicity); format: cell-based, human; conditions: minocycline 0 to 10 μM, 1:2 E/T
Procedure: EGFR+ SKOV3-mKate cells were seeded at 1.0 × 10^4 cells per well in a TC-treated flat-bottomed 96-well plate. For reversibility experiments, MinoCAR ON–OFF kinetics were tested by preactivating CAR T cells by incubating cells for 2 h on plates precoated with recombinant EGFR (10 μg/mL). CAR T cells were washed using 15 mL of PBS prior to coculture. […] Cells were then washed using 15 mL of PBS prior to coculture. Untreated CAR T cells were used as a control and were directly preceded to coculturing set. […] The Incucyte ZOOM Live-Cell Analysis System was used to carry out image capture at a rate of one image every 1 h for 150 h. […] The image capture rate of each condition was set at 1 image per hour for 72 h.

[5] = tested on: MinoCAR-transduced PBMC against SupT1-EGFR+ target cells; format: cell-based; conditions: compared to 0 μM minocycline
Procedure: as §1, with “Where appropriate, minocycline was supplemented as a part of the culture conditions.” left out

aMinoC1 sdAb = test: ELISA of CX7C-muIgG2a-Fc peptide fusions on aMinoC1 with or without minocycline; format: binding, alpaca; conditions: 1 μM minocycline

CN(C)c1ccc(O)c2c1C[C@H]1C[C@H]3[C@H](N(C)C)C(O)=C(C(N)=O)C(=O)[C@@]3(O)C(O)=C1C2=O [minocycline]
effect of minocycline on MinoCAR efficacy (BLI) (Nalm6 EGFR+ tumor): Significant inhibition of MinoCAR; also recorded: significantly reduced MinoCAR efficacy
peptide-muIgG2a Fc binding to membrane-bound aMinoC1 in presence of small molecule [1]: Dose-dependent reduction of peptide-muIgG2a Fc binding
peptide-muIgG2a Fc binding to membrane-bound aMinoC1 in presence of small molecule ([1]; listed as Minocycline): concentration-dependent reduction in peptide binding
reduction (minus) of IFN-γ secretion [2]: 2.7 fold
reduction (minus) of IL2 secretion [2]: 1.9 fold
decrease of IFN-γ secretion [3]: 2 fold
SKOV3 target cell killing kinetics [4]: dose-dependent decrease in SKOV3 target cell killing
increase in target cell survival ([5]; 24 h): 2.5 fold
increase in target cell survival ([5]; 72 h): 35 fold
ELISA detection of peptide-Fc on aMinoC1 in presence of minocycline (aMinoC1 sdAb): out-competed peptide-Fc conjugates
